The values below come from patent publication US9233111B2, “Pyrrolo pyrimidine derivatives” (NOVARTIS AG, priority 2011, dated 2016).

In assay [1] the target is full-length human recombinant BTK (Homo sapiens (Human), UniProt Q06187). Description: Inhibition of Btk enzymatic activity (biochemical enzyme assay, Caliper). Particulars: 30° C., 60 minutes. On the procedure: The inhibitory activity of the present compounds against Btk was assessed in a biochemical enzyme assay. Assay plates in 384 well format were prepared with 8-point serial dilutions for the test compounds on a Thermo CatX workstation equipped with a Innovadyne Nanodrop Express. The assay plates were prepared by addition of 50 nl per well of compound solution in 90% DMSO. The kinase reactions were started by stepwise addition of 4.5 μl per well of peptide/ATP-solution (4 μM FITC-Ahx-[…]-NH2, 164 μM ATP) in kinase buffer (50 mM HEPES, pH 7.5, 1 mM DTT, 0.02% Tween20, 0.02% BSA, 0.6% DMSO, 10 mM beta-glycerophosphate, and 10 μM sodium orthovanadate, 18 mM MgCl2, 1 mM MnCl2) and 4.5 μl per well of enzyme solution (6.4 nM full-length human recombinant BTK) in kinase buffer. Kinase reactions were incubated at 30° C. for 60 minutes and subsequently terminated by addition of 16 μl per well of stop solution (100 mM HEPES pH 7.5, 5% DMSO, 0.1% Caliper coating reagent, 10 mM EDTA, and 0.015% Brij35). Kinase reactions were analyzed on a Caliper LC3000 workstation by separating phosphorylated and unphosphorylated peptides and kinase activities were calculated from the amounts of newly formed phospho-peptide. Inhibition data were calculated by comparison to control reactions without enzyme (100% inhibition) and without inhibitors (0% inhibition). The concentration of inhibitor required for 50% inhibition (IC50) was calculated from the inhibition in response to inhibitor concentrations.

Assay [2] has as its target Btk (Homo sapiens (Human), UniProt Q06187). Briefly: Inhibition of cellular Btk activity: Btk-dependent FcG receptor-induced IL-8 secretion in differentiated THP1 cells. The conditions noted are these: IgG-stimulated IL-8 secretion, 24 hours. The assay is classed as cell-based. On the procedure: Alternatively, the present compounds might also be assessed for their capacity to inhibit Btk-dependent FcG receptor-induced IL-8 secretion in human cells. The human myeloid leukemia THP1 cell line (ATCC TIB202) was grown in RPMI 1640 medium supplemented with 10% FCS and 15 nM 1, 25-dihydroxy Vitamin D3 during 4 days before use to induced myeloid differentiation. A sufficient number of tissue-culture grade 384-well plates was coated with human IgG of unknown specificity by incubating overnight at 4° C. with 40 μl/well of a 50 μg/ml IgG solution in PBS. On the day of the experiment, plates were washed 5 times with 80 μl water on a Molecular Devices Aquamax DW4 plate washer. Solutions of the test compounds in 90% DMSO were added to each well on a Hamilton Microlab Star liquid handling station to 40 μl/well tissue culture medium and the total DMSO concentration was adjusted to 0.1%. Differentiated THP1 cells were then added in 40 μl/well to reach a final density of 5'000 cells/well in 80 μl culture medium. After 24 hours, IL-8 secretion was measured in the supernatant by the IL-8 HTRF assay following the protocol of the vendor (CisBio international). Inhibition data were calculated by comparison to control cultures without IgG stimulus enzyme (100% inhibition) and without inhibitors (0% inhibition). The concentration of inhibitor required for 50% inhibition (IC50) was calculated from the inhibition in response to inhibitor concentrations.

Assay [3] deals with Btk (Rattus norvegicus, UniProt Q5S255). Description: Inhibition of Btk activity in blood: in vitro B cell activation assay (CD86) in rat whole blood. The assay is classed as cell-based. Particulars: Lewis rat whole blood diluted to 50%, anti-rat IgM + IL-4, CD86 on CD45RA positive B cells, 24 hours. Here is the method:
Alternatively, the inhibitory activity of the present compounds in blood was assessed in the following in vitro B cell activation assay. Whole blood was collected from the abdominal aorta of anaesthetized adult male Lewis rats and was anticoagulated with 100 U/ml sodium heparin. Blood was then diluted to 50% with high glucose DMEM (Amimed) supplemented with 100 U/ml penicillin, […] streptomycin, 2 mM L-glutamin, 50 mg/ml dextran 40 and 5% FCS (Fetaclone I, Gibco). Then, 190 μl prediluted blood was mixed in 96 well U-bottomed microtiter plates (Nunc) with 10 μl of serial dilutions of test compounds in DMSO. Cultures were incubated at 37° C., 5% CO2 for 1 hour, then 30 μl of rat IL-4 (Beckton-Dickinson, final concentration 5 ng/ml) and goat anti-rat IgM (Serotec, final concentration 15 ug/ml) were added and the cultures were incubated for 24 hours. Activation of B cells was measured by flow cytometry after staining for the B cell subset with PE-Cy5-labeled anti-ratCD45RA (Beckton-Dickinson) and for the activation marker CD86 (PE-labeled anti-rat CD86 (Beckton-Dickinson). All staining procedures were performed at RT for 30 min in the dark in 96-deep well V-bottomed microtiter plates (Corning) with BD Lysing Solution (Beckton-Dickinson). Cytometric data was acquired on a FACScalibur flow cytometer (BD Biosciences) and the subpopulation of lymphocytes were gated according to size and granularity and further analyzed for expression of CD45RA and the activation markers. Data for the inhibition of B cell activation were calculated from the percentage of cells positively stained for activation markers within the CD45RA positive population. Inhibition data were calculated by comparison to control cultures without anti-IgM and IL-4 (100% inhibition) and without inhibitors (0% inhibition). The concentration of inhibitor required for 50% inhibition (IC50) was calculated from the inhibition in response to inhibitor concentrations.

Chain of Btk (Homo sapiens (Human), UniProt Q06187) (Q06187 whole entry): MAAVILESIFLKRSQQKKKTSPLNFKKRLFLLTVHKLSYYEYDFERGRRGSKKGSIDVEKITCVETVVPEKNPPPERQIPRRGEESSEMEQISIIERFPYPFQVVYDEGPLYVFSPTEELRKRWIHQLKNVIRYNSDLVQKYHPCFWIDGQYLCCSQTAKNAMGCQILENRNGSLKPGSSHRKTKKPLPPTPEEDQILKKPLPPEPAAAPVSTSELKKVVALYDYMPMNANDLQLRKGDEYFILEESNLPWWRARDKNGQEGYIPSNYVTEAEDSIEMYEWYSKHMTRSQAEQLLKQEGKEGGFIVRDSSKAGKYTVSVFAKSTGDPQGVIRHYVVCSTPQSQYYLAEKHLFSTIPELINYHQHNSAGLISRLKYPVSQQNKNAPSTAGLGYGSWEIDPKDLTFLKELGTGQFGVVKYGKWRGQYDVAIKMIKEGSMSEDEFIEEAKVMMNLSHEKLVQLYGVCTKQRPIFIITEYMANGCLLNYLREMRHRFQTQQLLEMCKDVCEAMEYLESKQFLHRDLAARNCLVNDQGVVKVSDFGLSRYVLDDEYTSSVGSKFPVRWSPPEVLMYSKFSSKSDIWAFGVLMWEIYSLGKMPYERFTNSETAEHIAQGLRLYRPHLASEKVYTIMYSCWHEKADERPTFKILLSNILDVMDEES
Chain of full-length human recombinant BTK (Q06187 whole entry): as above
Chain of Btk (Rattus norvegicus, UniProt Q5S255) (Q5S255 1-660): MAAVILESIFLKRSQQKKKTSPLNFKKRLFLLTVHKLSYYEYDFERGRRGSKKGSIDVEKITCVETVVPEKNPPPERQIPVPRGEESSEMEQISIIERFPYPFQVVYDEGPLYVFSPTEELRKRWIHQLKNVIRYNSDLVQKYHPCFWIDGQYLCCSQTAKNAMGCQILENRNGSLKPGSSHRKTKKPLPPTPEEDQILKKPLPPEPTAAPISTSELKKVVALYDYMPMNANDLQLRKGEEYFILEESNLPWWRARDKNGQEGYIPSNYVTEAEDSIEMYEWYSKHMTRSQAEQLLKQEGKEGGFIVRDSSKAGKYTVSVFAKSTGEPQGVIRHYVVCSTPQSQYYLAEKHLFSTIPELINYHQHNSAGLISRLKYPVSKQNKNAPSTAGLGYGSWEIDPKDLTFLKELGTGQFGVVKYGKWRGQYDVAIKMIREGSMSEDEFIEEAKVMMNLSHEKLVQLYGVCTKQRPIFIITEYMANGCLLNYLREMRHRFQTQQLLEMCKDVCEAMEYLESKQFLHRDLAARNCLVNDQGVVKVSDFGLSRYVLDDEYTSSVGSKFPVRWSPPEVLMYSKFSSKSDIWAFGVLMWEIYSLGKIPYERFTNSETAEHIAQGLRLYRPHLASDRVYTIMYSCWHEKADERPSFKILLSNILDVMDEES

Take `CN(C)C(=O)N1CC=C(c2cc3c(-c4ccc(F)c(NC(=O)N5CC(OC(C)(C)C)C5)c4)ncnc3[nH]2)CC1` [Example 62, 4-(4-{3-[(3-tert-Butoxy-azetidine-1-carbonyl)-amino]-4-fluoro-phenyl}-7H-pyrrolo[2,3-d]pyrimidin-6-yl)-3,6-dihydro-2H-pyridine-1-carboxylic acid dimethylamide]: the IC50 turned out to be 2 nM in assay [1] and 71 nM on Btk [2].
`Cc1c(NC(=O)N2CC(OC(C)C)C2)cc(F)cc1-c1ncnc2[nH]c(C3=CCN(C(=O)N(C)C)CC3)cc12` [Example 58, 4-(4-{5-Fluoro-3-[(3-isopropoxy-azetidine-1-carbonyl)-amino]-2-methyl-phenyl}-7H-pyrrolo[2,3-d]pyrimidin-6-yl)-3,6-dihydro-2H-pyridine-1-carboxylic acid dimethylamide]: the values for the half-inhibitory concentration (IC50) (in assay [1]; at Btk [3]) were 16 nM and 179 nM, respectively.
Take `CN(C)C(=O)N1CC=C(c2cc3c(-c4cccc(NC(=O)c5ccc(C(C)(C)O)cc5F)c4CO)ncnc3[nH]2)CC1` [Example 16, 4-(4-{3-[2-Fluoro-4-(1-hydroxy-1-methyl-ethyl)-benzoylamino]-2-hydroxymethyl-phenyl}-7H-pyrrolo[2,3-d]pyrimidin-6-yl)-3,6-dihydro-2H-pyridine-1-carboxylic acid dimethylamide]: the IC50 in assay [1] turned out to be 2 nM; on Btk [2], 69 nM.
As for `Cc1c(NC(=O)c2ccc3c(c2)OCC3(C)C)cc(F)cc1-c1ncnc2[nH]c(C3=CCN(C(=O)N(C)C)CC3)cc12` [Example 2, 4-(4-{3-[(3,3-Dimethyl-2,3-dihydro-benzofuran-6-carbonyl)-amino]-5-fluoro-2-methyl-phenyl}-7H-pyrrolo[2′3-d]pyrimidin-6-yl)-3,6-dihydro-2H-pyridine-1-carboxylic acid dimethylamide], the IC50 in assay [1] worked out at 4 nM; on Btk [3] it was 72 nM.
The corresponding values for `Cc1c(NC(=O)c2ccc(C3CC3)cc2)cc(F)cc1-c1ncnc2[nH]c(C3=CCN(C(=O)CO)CC3)cc12` [Example 32, 4-Cyclopropyl-N-(5-fluoro-3-{6-[1-(2-hydroxy-actyl)-1,2,3,6-tetrahydro-pyridin-4-yl]-7H-pyrrolo[2,3-d]pyrimidin-4-yl}-2-methyl-phenyl)benzamide] are 7 nM and 414 nM.
In the same order, the values of `CN(C)C(=O)N1CC=C(c2cc3c(-c4cccc(NC(=O)c5ccc(C6CC6)cc5)c4CO)ncnc3[nH]2)CC1` [Example 17, 4-{4-[3-(4-Cyclopropyl-benzoylamino)-2-hydroxymethyl-phenyl]-7H-pyrrolo[2,3-d]pyrimidin-6-yl}-3,6-dihydro-2H-pyridine-1-carboxylic acid dimethylamide] are 1 nM and 100 nM.
Regarding `CC(C)(C)c1ccc(C(=O)Nc2cccc(-c3ncnc4[nH]c(C5=CCN(C(=O)CF)CC5)cc34)c2CO)cc1` [Example 38, 4-tert-Butyl-N-(3-{6-[1-(2 fluoro-acetyl)-1,2,3,6-tetrahydro-pyridin-4-yl]-7H-pyrrolo[2,3-d]pyrimidin-4-yl}-2-hydroxymethyl-phenyl)-benzamide], the IC50 in assay [1] stood at 27 nM; against Btk [2], 20 nM.
In the case of `Cc1c(NC(=O)c2ccc(C(C)(C)CO)cc2)cc(F)cc1-c1ncnc2[nH]c(C3=CCN(C(=O)N(C)C)CC3)cc12` [Example 6, 4-(4-{5-Fluoro-3-[4-(2-hydroxy-1,1-dimethyl-ethyl)-benzoylamino]-2-methyl-phenyl}-7H-pyrrolo[2,3-d]pyrimidin-6-yl)-3,6-dihydro-2H-pyridine-1-carboxylic acid dimethylamide], the IC50 in assay [1] amounted to 2 nM; at Btk [3] it was 112 nM.
Turning to `Cc1c(NC(=O)N2CC(OC(C(F)(F)F)C(F)(F)F)C2)cc(F)cc1-c1ncnc2[nH]c(C3=CCN(C(=O)N(C)C)CC3)cc12` [Example 60, 4-[4-(5-Fluoro-2-methyl-3-{[3-(2,2,2-trifluoro-1-trifluoromethyl-ethoxy)-azetidine-1-carbonyl]-amino}-phenyl)-7H-pyrrolo[2,3-d]pyrimidin-6-yl]-3,6-dihydro-2H-pyridine-1-carboxylic acid dimethylamide], the IC50 in assay [1] amounted to 8 nM.
`Cc1c(NC(=O)c2cc3c(s2)CCC(C)C3)cc(F)cc1-c1ncnc2[nH]c(C3=CCN(C(=O)N(C)C)CC3)cc12` (stereo not drawn) [Example 3, 4-(4-{5-Fluoro-2-methyl-3-[(5-methyl-4,5,6,7-tetrahydro-benzo[b]thiophene-2-carbonyl)-amino]-phenyl}-7H-pyrrolo[2′3-d]pyrimidin-6-yl)-3,6-dihydro-2H-pyridine-1-carboxylic acid dimethylamide]: the figures for the IC50 (in assay [1]; at Btk [2]) were 5 nM and 27 nM, respectively.
Turning to `CC(C)(C)c1ccc(C(=O)Nc2cccc(-c3ncnc4[nH]c(C5=CCC(O)CC5)cc34)c2CO)cc1` (stereo not drawn) [Example 55, 4-tert-Butyl-N-{3-[6 (4 hydroxy-cyclohex-1-enyl)-7H-pyrrolo[2,3-d]pyrimidin-4-yl]-2-hydroxymethyl-phenyl}-benzamide], in assay [1], the IC50 worked out at 4 nM.
Turning to `Cc1c(NC(=O)c2ccc(C(C)(C)C)cc2)cccc1-c1ncnc2[nH]c(C3=CCC(O)CC3)cc12` (stereo not drawn) [Example 66, 4-tert-Butyl-N-{3-[6 (4 hydroxy-cyclohex-1-enyl)-7H-pyrrolo[2,3-d]pyrimidin-4-yl]-2-methyl-phenyl}-benzamide], in assay [1], the IC50 was found to be 12 nM.
For `Cc1c(NC(=O)c2ccc(C3(F)CC3)cc2)cc(F)cc1-c1ncnc2[nH]c(C3=CCN(C(=O)N(C)C)CC3)cc12` [Example 1, 4-(4-{5-Fluoro-3-[4-(1-fluoro-cyclopropyl)-benzoylamino]-2-methyl-phenyl}-7H-pyrrolo[2′3-d]pyrimidin-6-yl)-3,6-dihydro-2H-pyridine-1-carboxylic acid dimethylamide], the 50% inhibitory concentration (IC50) in assay [1] stood at 1 nM.
Same read-out and setting: then `Cc1c(NC(=O)c2ccc(S(F)(F)(F)(F)F)cc2)cc(F)cc1-c1ncnc2[nH]c(C3=CCN(C(=O)N4CCCC4)CC3)cc12` [Example 34, N-(5-Fluoro-2-methyl-3-{6-[1-(pyrrolidine-1-carbonyl)-1,2,3,6-tetrahydro-pyridin-4-yl]-7H-pyrrolo[2,3-d]pyrimidin-4-yl}-phenyl)-4-(pentafluoro-sulfanyl)-benzamide], with 34 nM; and `Cc1c(NC(=O)c2ccc(N(C)C)cc2)cc(F)cc1-c1ncnc2[nH]c(C3=CCN(C(=O)N(C)C)CC3)cc12` [Example 15, 4-{4-[3-(4-Dimethylamino-benzoylamino)-5-fluoro-2-methyl-phenyl]-7H-pyrrolo[2,3-d]pyrimidin-6-yl}-3,6-dihydro-2H-pyridine-1-carboxylic acid dimethylamide], with 17 nM.

A word on the IC50: it is the midpoint of a concentration-inhibition curve.
